Values quoted from earlier work as cited in US12023406B2, “Gastric residence systems with release rate-modulating films” (Lyndra Therapeutics, Inc., priority 2017, dated 2024).

Settings: gastric pH range

## Cc1nc2n(c(=O)c1CCN1CCC(c3noc4cc(F)ccc34)CC1)CCCC2 [risperidone]
  solubility at pH 1.5 versus pH 4.8: significantly higher at the more acidic end of the gastric pH range
